Data reported in PMC9532703, “A novel small molecule RK-019 inhibits FGFR2-amplification gastric cancer cell proliferation and induces apoptosis in vitro and in vivo” (Frontiers in Pharmacology, 2022).

Experiments:
Test in all cases: Kinase selectivity panel
Format in all cases: biochemical
Details in all cases: read-out: Inhibition(%) @ 1 µM RK-019
[1] = molecular target: T1, Hck(h) (Homo sapiens, UniProt P08631)
T1 construct: purchased Eurofins Discovery Services (KinaseProfiler)
Outline: (§1)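 The compound is tested at a fixed 1 µM in an in vitro binding assay based on competition at the ATP site of recombinant human kinase. Inhibition ratio is reported.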

[2] = molecular target: T2, PKCε(h) (Homo sapiens, UniProt Q02156)
T2 construct: purchased Eurofins Discovery Services (KinaseProfiler)
Outline: as §1

[3] = molecular target: T3, PI3 Kinase (p110a(H1047R)/p85a)(m) (Mus musculus, UniProt P42337, H1047R)
T3 construct: purchased Eurofins Discovery Services (KinaseProfiler)

[4] = molecular target: T4, SRMS(h) (Homo sapiens, UniProt Q9H3Y6)
T4 construct: purchased Eurofins Discovery Services (KinaseProfiler)
Outline: as §1

[5] = molecular target: T5, EGFR(h) (Homo sapiens, UniProt P00533)
T5 construct: purchased Eurofins Discovery Services (KinaseProfiler)
Outline: as §1

[6] = molecular target: T6, MAPKAP-K3(h) (Homo sapiens, UniProt Q16644)
T6 construct: purchased Eurofins Discovery Services (KinaseProfiler)
Outline: as §1

[7] = molecular target: T7, Plk4(h) (Homo sapiens, UniProt O00444)
T7 construct: purchased Eurofins Discovery Services (KinaseProfiler)
Outline: as §1

[8] = molecular target: T8, PI3 Kinase (p110a(E545K)/p85a)(m) (Mus musculus, UniProt P42337, E545K)
T8 construct: purchased Eurofins Discovery Services (KinaseProfiler)

[9] = molecular target: T9, STK32C(h) (Homo sapiens, UniProt Q86UX6)
T9 construct: purchased Eurofins Discovery Services (KinaseProfiler)
Outline: as §1

[10] = molecular target: T10, DMPK(h) (Homo sapiens, UniProt Q09013)
T10 construct: purchased Eurofins Discovery Services (KinaseProfiler)
Outline: as §1

[11] = molecular target: T11, WNK4(h) (Homo sapiens, UniProt Q96J92)
T11 construct: purchased Eurofins Discovery Services (KinaseProfiler)
Outline: as §1

[12] = molecular target: T12, TBK1(h) (Homo sapiens, UniProt Q9UHD2)
T12 construct: purchased Eurofins Discovery Services (KinaseProfiler)
Outline: as §1

[13] = molecular target: T13, TrkA(h) (Homo sapiens, UniProt P04629)
T13 construct: purchased Eurofins Discovery Services (KinaseProfiler)
Outline: as §1

[14] = molecular target: T14, Flt1(h) (Homo sapiens, UniProt P17948)
T14 construct: purchased Eurofins Discovery Services (KinaseProfiler)
Outline: as §1

[15] = molecular target: T15, ACK1(h) (Homo sapiens, UniProt Q07912)
T15 construct: purchased Eurofins Discovery Services (KinaseProfiler)
Outline: as §1

[16] = molecular target: T16, CK2α2(h) (Homo sapiens, UniProt P19784)
T16 construct: purchased Eurofins Discovery Services (KinaseProfiler)
Outline: as §1

[17] = molecular target: T17, CDK13/cyclinK(h) (Homo sapiens, UniProt Q14004)
T17 construct: purchased Eurofins Discovery Services (KinaseProfiler)
Outline: as §1

[18] = molecular target: T18, CK1γ1(h) (Homo sapiens, UniProt Q9HCP0)
T18 construct: purchased Eurofins Discovery Services (KinaseProfiler)
Outline: as §1

[19] = molecular target: T19, HIPK3(h) (Homo sapiens, UniProt Q9H422)
T19 construct: purchased Eurofins Discovery Services (KinaseProfiler)
Outline: as §1

[20] = molecular target: T20, MRCKβ(h) (Homo sapiens, UniProt Q9Y5S2)
T20 construct: purchased Eurofins Discovery Services (KinaseProfiler)
Outline: as §1

[21] = molecular target: T21, CK2(h) (Homo sapiens, UniProt P68400)
T21 construct: purchased Eurofins Discovery Services (KinaseProfiler)
Outline: as §1

[22] = molecular target: T22, Blk(h) (Homo sapiens, UniProt P51451)
T22 construct: purchased Eurofins Discovery Services (KinaseProfiler)
Outline: as §1

[23] = molecular target: T23, Abl (H396P) (h) (Homo sapiens, UniProt P00519, H396P)
T23 construct: purchased Eurofins Discovery Services (KinaseProfiler)
Outline: as §1

[24] = molecular target: T24, PAK3(h) (Homo sapiens, UniProt O75914)
T24 construct: purchased Eurofins Discovery Services (KinaseProfiler)
Outline: as §1

[25] = molecular target: T25, MLCK(h) (Homo sapiens, UniProt Q15746)
T25 construct: purchased Eurofins Discovery Services (KinaseProfiler)
Outline: as §1

[26] = molecular target: T26, PI3 Kinase (p110b/p85a)(h) (Homo sapiens, UniProt P42338)
T26 construct: purchased Eurofins Discovery Services (KinaseProfiler)
Outline: as §1

[27] = molecular target: T27, GRK7(h) (Homo sapiens, UniProt Q8WTQ7)
T27 construct: purchased Eurofins Discovery Services (KinaseProfiler)
Outline: as §1

[28] = molecular target: T28, ALK4(h) (Homo sapiens, UniProt P36896)
T28 construct: purchased Eurofins Discovery Services (KinaseProfiler)
Outline: as §1

[29] = molecular target: T29, DYRK3(h) (Homo sapiens, UniProt O43781)
T29 construct: purchased Eurofins Discovery Services (KinaseProfiler)
Outline: as §1

[30] = molecular target: T30, TLK1(h) (Homo sapiens, UniProt Q9UKI8)
T30 construct: purchased Eurofins Discovery Services (KinaseProfiler)
Outline: as §1

[31] = molecular target: T31, ULK1(h) (Homo sapiens, UniProt O75385)
T31 construct: purchased Eurofins Discovery Services (KinaseProfiler)
Outline: as §1

[32] = molecular target: T32, PI3 Kinase (p110a(E542K)/p85a)(m) (Mus musculus, UniProt P42337, E542K)
T32 construct: purchased Eurofins Discovery Services (KinaseProfiler)

[33] = molecular target: T33, SGK2(h) (Homo sapiens, UniProt Q9HBY8)
T33 construct: purchased Eurofins Discovery Services (KinaseProfiler)
Outline: as §1

[34] = molecular target: T34, PDHK4(h) (Homo sapiens, UniProt Q16654)
T34 construct: purchased Eurofins Discovery Services (KinaseProfiler)
Outline: as §1

[35] = molecular target: T35, cKit(V560G)(h) (Homo sapiens, UniProt P10721, V560G)
T35 construct: purchased Eurofins Discovery Services (KinaseProfiler)
Outline: as §1

[36] = molecular target: T36, CSK(h) (Homo sapiens, UniProt P41240)
T36 construct: purchased Eurofins Discovery Services (KinaseProfiler)
Outline: as §1

T8 sequence (P42337 whole entry E545K): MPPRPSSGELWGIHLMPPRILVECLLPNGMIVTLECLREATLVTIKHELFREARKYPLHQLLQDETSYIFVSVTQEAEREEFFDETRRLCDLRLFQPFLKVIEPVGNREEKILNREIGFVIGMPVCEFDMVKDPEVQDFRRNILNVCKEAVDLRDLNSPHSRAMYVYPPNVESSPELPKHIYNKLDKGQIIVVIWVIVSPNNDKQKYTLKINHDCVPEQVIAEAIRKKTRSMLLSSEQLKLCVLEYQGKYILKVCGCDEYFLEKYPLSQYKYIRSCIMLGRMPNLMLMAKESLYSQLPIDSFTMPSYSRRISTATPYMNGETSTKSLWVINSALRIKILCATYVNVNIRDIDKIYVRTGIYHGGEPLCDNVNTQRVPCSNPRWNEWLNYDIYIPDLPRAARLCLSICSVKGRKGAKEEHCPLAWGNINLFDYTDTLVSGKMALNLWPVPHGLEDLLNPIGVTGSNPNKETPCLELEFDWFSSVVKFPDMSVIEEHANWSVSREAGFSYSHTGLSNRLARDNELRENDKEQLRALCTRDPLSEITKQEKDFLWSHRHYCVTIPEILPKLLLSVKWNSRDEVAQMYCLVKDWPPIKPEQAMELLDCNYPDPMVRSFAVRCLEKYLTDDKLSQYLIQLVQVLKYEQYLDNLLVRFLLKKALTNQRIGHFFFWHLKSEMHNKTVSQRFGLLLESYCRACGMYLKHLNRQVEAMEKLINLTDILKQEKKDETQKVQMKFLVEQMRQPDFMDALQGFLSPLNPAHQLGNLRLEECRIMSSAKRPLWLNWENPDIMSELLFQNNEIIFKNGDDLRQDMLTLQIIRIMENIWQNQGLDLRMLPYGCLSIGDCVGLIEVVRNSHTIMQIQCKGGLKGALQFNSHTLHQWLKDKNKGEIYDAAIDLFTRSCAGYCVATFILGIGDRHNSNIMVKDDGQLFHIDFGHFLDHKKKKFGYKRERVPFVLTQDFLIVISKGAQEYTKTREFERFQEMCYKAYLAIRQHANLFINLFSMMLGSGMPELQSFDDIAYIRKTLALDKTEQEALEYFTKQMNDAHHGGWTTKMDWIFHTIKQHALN
T8 sequence (P26450 2-724 partner): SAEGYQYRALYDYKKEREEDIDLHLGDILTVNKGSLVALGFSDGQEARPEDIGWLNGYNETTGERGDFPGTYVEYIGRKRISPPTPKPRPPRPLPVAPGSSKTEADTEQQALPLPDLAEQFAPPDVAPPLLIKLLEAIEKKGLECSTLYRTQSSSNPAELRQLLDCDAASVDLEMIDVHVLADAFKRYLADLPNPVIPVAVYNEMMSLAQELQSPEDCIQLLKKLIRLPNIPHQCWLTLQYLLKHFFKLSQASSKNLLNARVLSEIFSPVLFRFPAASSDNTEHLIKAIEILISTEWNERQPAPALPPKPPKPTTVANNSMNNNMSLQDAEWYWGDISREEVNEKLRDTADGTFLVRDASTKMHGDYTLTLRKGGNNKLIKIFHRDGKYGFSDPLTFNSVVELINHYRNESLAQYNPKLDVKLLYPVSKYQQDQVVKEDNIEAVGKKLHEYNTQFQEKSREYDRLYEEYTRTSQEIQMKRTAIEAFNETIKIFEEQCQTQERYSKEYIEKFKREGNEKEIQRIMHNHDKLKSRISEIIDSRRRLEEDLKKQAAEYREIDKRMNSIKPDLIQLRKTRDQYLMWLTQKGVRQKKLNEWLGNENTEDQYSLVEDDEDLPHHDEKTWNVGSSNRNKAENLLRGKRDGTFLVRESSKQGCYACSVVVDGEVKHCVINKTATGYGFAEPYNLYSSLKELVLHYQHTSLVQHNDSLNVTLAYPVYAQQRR
T15 sequence (Q07912 whole entry): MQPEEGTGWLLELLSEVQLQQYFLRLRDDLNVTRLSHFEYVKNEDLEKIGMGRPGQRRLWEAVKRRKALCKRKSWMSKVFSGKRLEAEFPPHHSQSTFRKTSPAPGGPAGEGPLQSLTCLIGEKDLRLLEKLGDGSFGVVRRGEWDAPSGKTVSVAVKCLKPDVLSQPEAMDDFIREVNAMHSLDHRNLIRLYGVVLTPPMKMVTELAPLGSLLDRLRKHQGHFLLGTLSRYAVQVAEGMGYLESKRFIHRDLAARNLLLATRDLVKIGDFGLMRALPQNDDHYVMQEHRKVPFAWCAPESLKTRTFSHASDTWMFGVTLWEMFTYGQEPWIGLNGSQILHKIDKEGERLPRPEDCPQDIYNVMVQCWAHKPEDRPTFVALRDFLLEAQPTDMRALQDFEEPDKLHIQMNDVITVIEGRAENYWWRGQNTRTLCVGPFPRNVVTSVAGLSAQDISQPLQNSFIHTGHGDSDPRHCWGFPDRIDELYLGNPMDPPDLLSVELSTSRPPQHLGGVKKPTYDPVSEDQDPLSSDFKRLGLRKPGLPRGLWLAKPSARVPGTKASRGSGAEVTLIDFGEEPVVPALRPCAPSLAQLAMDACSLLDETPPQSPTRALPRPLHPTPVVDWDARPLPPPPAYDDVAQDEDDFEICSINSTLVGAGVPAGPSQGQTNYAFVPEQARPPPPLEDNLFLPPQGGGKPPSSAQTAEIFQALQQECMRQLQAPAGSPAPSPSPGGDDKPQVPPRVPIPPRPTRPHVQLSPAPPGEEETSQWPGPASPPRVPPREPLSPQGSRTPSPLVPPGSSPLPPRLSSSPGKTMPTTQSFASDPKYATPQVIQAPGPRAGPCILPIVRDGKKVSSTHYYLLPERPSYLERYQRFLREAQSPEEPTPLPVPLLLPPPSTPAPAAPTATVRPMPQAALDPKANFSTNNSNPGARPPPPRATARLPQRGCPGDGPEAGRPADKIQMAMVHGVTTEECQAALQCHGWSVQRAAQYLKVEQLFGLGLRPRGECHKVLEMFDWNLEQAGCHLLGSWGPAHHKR
T26 sequence (P42338 whole entry): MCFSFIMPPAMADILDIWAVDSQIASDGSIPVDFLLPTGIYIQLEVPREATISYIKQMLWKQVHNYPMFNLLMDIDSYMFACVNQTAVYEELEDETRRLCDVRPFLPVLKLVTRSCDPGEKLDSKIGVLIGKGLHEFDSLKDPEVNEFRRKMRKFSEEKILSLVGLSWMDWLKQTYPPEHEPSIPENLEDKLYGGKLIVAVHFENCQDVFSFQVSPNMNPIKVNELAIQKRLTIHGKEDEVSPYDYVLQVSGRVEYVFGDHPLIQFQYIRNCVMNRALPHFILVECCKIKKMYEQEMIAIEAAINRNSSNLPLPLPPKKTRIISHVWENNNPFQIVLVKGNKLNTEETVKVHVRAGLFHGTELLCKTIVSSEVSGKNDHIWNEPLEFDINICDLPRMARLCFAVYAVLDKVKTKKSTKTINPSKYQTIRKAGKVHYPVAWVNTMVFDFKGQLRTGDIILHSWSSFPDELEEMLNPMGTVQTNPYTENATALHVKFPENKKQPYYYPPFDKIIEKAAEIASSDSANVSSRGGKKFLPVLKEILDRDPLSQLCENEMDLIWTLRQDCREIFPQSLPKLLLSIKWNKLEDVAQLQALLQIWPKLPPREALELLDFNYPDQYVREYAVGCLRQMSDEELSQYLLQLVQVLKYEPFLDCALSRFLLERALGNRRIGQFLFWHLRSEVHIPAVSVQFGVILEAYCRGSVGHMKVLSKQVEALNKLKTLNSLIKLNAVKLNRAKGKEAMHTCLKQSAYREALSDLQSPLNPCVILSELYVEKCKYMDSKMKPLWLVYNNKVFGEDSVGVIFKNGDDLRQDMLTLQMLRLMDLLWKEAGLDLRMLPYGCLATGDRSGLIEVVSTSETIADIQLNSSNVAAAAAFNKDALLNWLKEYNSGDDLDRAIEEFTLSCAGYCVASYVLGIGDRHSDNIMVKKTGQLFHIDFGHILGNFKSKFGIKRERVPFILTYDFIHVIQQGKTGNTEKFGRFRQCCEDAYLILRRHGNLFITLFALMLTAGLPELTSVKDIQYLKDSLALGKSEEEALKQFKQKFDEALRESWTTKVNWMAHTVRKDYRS
T26 sequence (P27986 whole entry partner): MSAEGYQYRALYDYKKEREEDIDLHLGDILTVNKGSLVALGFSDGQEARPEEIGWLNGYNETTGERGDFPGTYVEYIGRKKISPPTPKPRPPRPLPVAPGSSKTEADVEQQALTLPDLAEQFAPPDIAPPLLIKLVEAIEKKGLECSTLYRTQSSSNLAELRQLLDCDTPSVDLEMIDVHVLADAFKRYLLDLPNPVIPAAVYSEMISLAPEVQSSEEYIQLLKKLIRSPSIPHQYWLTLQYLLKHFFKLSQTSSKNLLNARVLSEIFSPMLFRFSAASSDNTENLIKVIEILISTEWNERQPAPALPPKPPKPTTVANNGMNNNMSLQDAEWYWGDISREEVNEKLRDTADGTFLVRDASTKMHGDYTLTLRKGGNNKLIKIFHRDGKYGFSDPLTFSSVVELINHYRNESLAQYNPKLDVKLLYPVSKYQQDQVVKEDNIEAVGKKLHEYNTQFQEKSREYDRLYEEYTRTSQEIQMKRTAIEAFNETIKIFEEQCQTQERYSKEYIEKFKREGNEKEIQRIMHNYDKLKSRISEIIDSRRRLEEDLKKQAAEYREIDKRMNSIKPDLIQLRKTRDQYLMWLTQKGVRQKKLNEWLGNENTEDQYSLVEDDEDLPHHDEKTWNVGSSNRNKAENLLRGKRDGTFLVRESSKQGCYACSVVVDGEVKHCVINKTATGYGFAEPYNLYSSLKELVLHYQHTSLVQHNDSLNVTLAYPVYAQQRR
T28 sequence (P36896 24-505): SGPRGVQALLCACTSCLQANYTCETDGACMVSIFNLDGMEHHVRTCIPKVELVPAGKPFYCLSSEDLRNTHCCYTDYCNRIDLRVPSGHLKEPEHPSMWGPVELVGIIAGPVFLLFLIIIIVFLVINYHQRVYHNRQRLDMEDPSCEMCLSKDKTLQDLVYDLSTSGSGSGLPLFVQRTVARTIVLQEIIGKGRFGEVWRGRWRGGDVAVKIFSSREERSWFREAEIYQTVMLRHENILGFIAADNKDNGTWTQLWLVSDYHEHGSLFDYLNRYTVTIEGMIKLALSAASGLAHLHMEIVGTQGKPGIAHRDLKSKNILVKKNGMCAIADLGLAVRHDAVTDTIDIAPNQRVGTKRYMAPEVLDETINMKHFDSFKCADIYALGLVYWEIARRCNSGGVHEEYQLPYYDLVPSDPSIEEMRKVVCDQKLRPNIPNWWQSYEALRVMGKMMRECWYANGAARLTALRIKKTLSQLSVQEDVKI

Question: `COc1cc(OC)cc(N(CCN[C@H](C)CO)c2ccc3ncc(-c4cnn(C)c4)c(=O)n3c2)c1` [RK-019, (R)-7-((3,5-dimethoxyphenyl) (2-((1-hydroxypropan-2-yl)amino)ethyl)amino)-3-(1-methyl-1H-pyrazol-4-yl)-4H-pyrido [1,2-a]pyrimidin-4-one] was tested. Which activity at 1 µM [1] did it give?
Answer: Its activity at 1 µM is 27%.

Question: What about the activity at 1 µM [2] of the same molecule?
Answer: Its activity at 1 µM is 88%.

Question: What about the activity at 1 µM [3] of the same molecule?
Answer: The activity at 1 µM was 100%.

Question: And the activity at 1 µM [4]?
Answer: Its activity at 1 µM is 123%.

Question: And the activity at 1 µM [5]?
Answer: Its activity at 1 µM is 119%.

Question: And the activity at 1 µM [6]?
Answer: Its activity at 1 µM is 109%.

Question: What about the activity at 1 µM [7] of the same molecule?
Answer: Its activity at 1 µM is 91%.

Question: What about the activity at 1 µM [8] of the same molecule?
Answer: Its activity at 1 µM is 102%.

Question: And the activity at 1 µM [9]?
Answer: Its activity at 1 µM is 72%.

Question: And the activity at 1 µM [10]?
Answer: Its activity at 1 µM is 98%.

Question: And the activity at 1 µM [11]?
Answer: Its activity at 1 µM is 86%.

Question: What about the activity at 1 µM [12] of the same molecule?
Answer: Its activity at 1 µM is 101%.

Question: And the activity at 1 µM [13]?
Answer: Its activity at 1 µM is 92%.

Question: And the activity at 1 µM [14]?
Answer: Its activity at 1 µM is 29%.

Question: What about the activity at 1 µM [15] of the same molecule?
Answer: Its activity at 1 µM is 104%.

Question: What about the activity at 1 µM [16] of the same molecule?
Answer: The activity at 1 µM was 105%.

Question: And the activity at 1 µM [17]?
Answer: The activity at 1 µM was 109%.

Question: What about the activity at 1 µM [18] of the same molecule?
Answer: Its activity at 1 µM is 92%.

Question: And the activity at 1 µM [19]?
Answer: The activity at 1 µM was 94%.

Question: What about the activity at 1 µM [20] of the same molecule?
Answer: The activity at 1 µM was 108%.

Question: And the activity at 1 µM [21]?
Answer: The activity at 1 µM was 112%.

Question: What about the activity at 1 µM [22] of the same molecule?
Answer: The activity at 1 µM was 70%.

Question: And the activity at 1 µM [23]?
Answer: Its activity at 1 µM is 49%.

Question: And the activity at 1 µM [24]?
Answer: The activity at 1 µM was 97%.

Question: And the activity at 1 µM [25]?
Answer: Its activity at 1 µM is 92%.

Question: And the activity at 1 µM [26]?
Answer: Its activity at 1 µM is 100%.

Question: What about the activity at 1 µM [27] of the same molecule?
Answer: Its activity at 1 µM is 108%.

Question: And the activity at 1 µM [28]?
Answer: The activity at 1 µM was 91%.

Question: What about the activity at 1 µM [29] of the same molecule?
Answer: Its activity at 1 µM is 88%.

Question: And the activity at 1 µM [30]?
Answer: Its activity at 1 µM is 98%.

Question: And the activity at 1 µM [31]?
Answer: Its activity at 1 µM is 105%.

Question: What about the activity at 1 µM [32] of the same molecule?
Answer: Its activity at 1 µM is 99%.

Question: What about the activity at 1 µM [33] of the same molecule?
Answer: Its activity at 1 µM is 79%.

Question: And the activity at 1 µM [34]?
Answer: Its activity at 1 µM is 93%.

Question: And the activity at 1 µM [35]?
Answer: The activity at 1 µM was 14%.

Question: And the activity at 1 µM [36]?
Answer: The activity at 1 µM was 94%.
